Experimental data reported in patent US20100249419A1, “UTILIZATION OF NOVEL COMPOUNDS WITH AMYLOID AFFINITY AND METHOD OF PRODUCING THE SAME” (NIHON MEDI-PHYSICS CO., LTD., priority 2007, published 2010).

Key:
[1] = Transferability into brain and clearance; assay type: in vivo, male Wistar rats; conditions: intravenous injection, rats
Procedure: Using Compound 1 (Example 10) and Compound 2 (Example 11), a time course change of radioactive accumulation in brain of male Wistar rats (7-week old) was measured.
A diethyl ether solution of Compound 1 (Example 10) prepared in Example 3, a diethyl ether solution of Compound 2 (Example 11) prepared in Example 6 and a diethyl ether solution of [^123I]-IMPY (Comparative Example 5) prepared in Reference Example 1 were each diluted with 10 mg/mL ascorbic acid-containing physiological saline solution to adjust to a radioactive concentration of 8-12 MBq/mL. 0.05 mL each of the prepared sample solutions was injected under thiopental anesthesia into the tail vein of the rats. The rats were sacrificed by bleeding from abdominal artery, and brains were removed and subjected to measurement of mass of brains and further subjected to measurement of radioactivity (hereinafter referred to as A in this Example) with a single channel analyzer (detector type: SP-20 manufactured by OHYO KOKEN KOGYO Co., Ltd.) 2, 5, 30 and 60 minutes after the injection. Further, the radioactivity level of the rest of the whole body was measured in the same manner as above (hereinafter referred to as B in this Example). Using these measurement results, radioactive distribution per unit weight of brain (% ID/g) at the respective time points were calculated in accordance with the following formula (3).
Three animals were used for the experiment at the respective time points.
Using Compound 4 and Compound 6, a time course change of radioactive accumulation in brain of male Wistar rats (7-week old) was measured.
Compound 4 (Example 22), Compound 6 (Example 23) and a solution of [^123I]-IMPY (Comparative Example 8) prepared above in Reference Example 1 were each diluted with a 10 mg/mL ascorbic acid-containing physiological saline solution to prepare solutions (20-31 MBq/mL in radioactive concentration). 0.05 mL each of the prepared sample solutions was injected under thiopental anesthesia into the tail vein of the respective Wistar rat (7-week old). The rats were sacrificed by bleeding from abdominal artery, and brains were removed and subjected to measurement of mass of brains and further subjected to measurement of radioactivity (hereinafter referred to as A in this Example) with a single channel analyzer (detector type: SP-20 manufactured by OHYO KOKEN KOGYO Co., Ltd.) 2, 5, 30 and 60 minutes after the injection. Further, the radioactivity level of the rest of the whole body was measured in the same manner as above (hereinafter referred to as B in this Example). Using these measurement results, radioactive distribution per unit weight of brain (% ID/g) at the respective time points were calculated in accordance with the following formula (5).

[2] = target: T1, aggregated Aβ (Aβ1-42) injected into amygdaloid nucleus (Homo sapiens, UniProt P05067); test: Confirmation of imaging of amyloid in brain (ex vivo autoradiogram, Aβ1-42); design: species or system male Wistar rat; conditions: brain slice 60 minutes after tail vein injection
T1 construct: Aβ1-42 (manufactured by Wako) was dissolved in phosphate buffer (pH 7.4); purchased Wako
Procedure: The following experiment was carried out in order to examine whether amyloid in brain can be imaged by the compound of the present invention.
(1) Aβ1-42 (manufactured by Wako) was dissolved in phosphate buffer (pH 7.4) and shaken at 37° C. for 72 hours, to obtain a 1 mg/mL suspension of aggregated Aβ (hereinafter referred to as amyloid suspension in the Examples).
(2) 2.5 μL (corresponding to […]) of the amyloid suspension was injected into an amygdaloid nucleus on one side of a male Wistar rat (7-week old). As a control, 2.5 μL of a phosphate buffered physiological saline solution (pH 7.4) was injected into an amygdaloid nucleus on the other side of the rat. The rats were examined 1 day after the injection of the amyloid suspension and the phosphate buffered physiological saline solution (pH 7.4).
(3) Compound 1 was dissolved in a 10 mg/mL ascorbic acid-containing physiological saline solution to obtain a sample solution (22 MBq/mL in radioactivity concentration in the sample solution). This solution was injected under thiopental anesthesia into the rat through the tail vein (dosage: 0.5 mL, dosed radioactivity: 11-13 MBq equivalent).
(4) Brain was removed 60 minutes after the injection to prepare a brain slice of 10 μm in thickness with a microtome (type: CM3050S, manufactured by LEICA). The brain slice was exposed to an imaging plate for 20 hours, and then image analysis was carried out by use of a Bio-imaging Analyzer (type: BAS-2500; manufactured by FUJIFILM Corporation).
(5) After the completion of the image analysis using the Bio-imaging Analyzer, […]
Thus, it was confirmed that amyloid was deposited on the slice (FIG. 6b).
The same procedures as in Example 12 were performed except using a solution of Compound 2 in a 10 mg/mL ascorbic acid as a sample solution (the radioactive concentration of the sample solution was 25 MBq/mL).
(1) Aβ1-42 (manufactured by Wako) was dissolved in phosphate buffer (pH 7.4) and shaken at 37° C. for 72 hours, to obtain 1 mg/mL of a suspension of aggregated Aβ (hereinafter referred to as amyloid suspension in the Examples).
(3) A sample solution (30 MBq/mL in radioactivity concentration, Example 24) in which Compound 4 was dissolved in a 10 mg/mL ascorbic acid-containing physiological saline solution and a sample solution (30 MBq/mL in radioactivity concentration, Example 25) in which Compound 6 was dissolved in a 10 mg/mL ascorbic acid-containing physiological saline solution were prepared. This solution was injected under thiopental anesthesia into the rat through the tail vein (dosage: 0.5 mL, dosed radioactivity: 11-15 MBq equivalent).
Thus, it was confirmed that amyloid was deposited on the slice (FIG. 12 and FIG. 13).

T1 sequence (P05067 672-713): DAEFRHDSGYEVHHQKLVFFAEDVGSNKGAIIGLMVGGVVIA

Row | Substance | Radioactive distribution per unit weight of brain ([1]; After 2 min., Table 5) [% ID/g] | Radioactive distribution per unit weight of brain ([1]; After 5 min., Table 5) [% ID/g] | Radioactive distribution per unit weight of brain ([1]; After 30 min., Table 5) [% ID/g] | Radioactive distribution per unit weight of brain ([1]; After 60 min., Table 5) [% ID/g] | Accumulation of radioactivity in amygdaloid nucleus on the amyloid-injected side [2] | Radioactive distribution per unit weight of brain ([1]; After 2 min., Table 7) [% ID/g] | Radioactive distribution per unit weight of brain ([1]; After 5 min., Table 7) [% ID/g] | Radioactive distribution per unit weight of brain ([1]; After 30 min., Table 7) [% ID/g] | Radioactive distribution per unit weight of brain ([1]; After 60 min., Table 7) [% ID/g]
1 | 2-(4′-ethoxyphenyl)-6-[^123I]iodoimidazo[1,2-a]pyridine [Compound 2] | 0.89 | 0.66 | 0.13 | 0.04 | marked accumulation of radioactivity | – | – | – | –
2 | 2-[4′-(3″-hydroxypropoxy)phenyl]-6-[^123I]iodoimidazo[1,2-a]pyridine [Compound 6] | – | – | – | – | marked accumulation of radioactivity | 0.81 | 0.56 | 0.07 | 0.02
3 | 2-[4′-(2″-hydroxyethoxy)phenyl]-6-[^123I]iodoimidazo[1,2-a]pyridine [Compound 1] | 0.90 | 0.52 | 0.06 | 0.01 | marked accumulation of radioactivity | – | – | – | –
